Measurements: patent US20130336940A1, “MODIFIED PIG ISLETS FOR DIABETES TREATMENT” (UNIVERSITE CATHOLIQUE DE LOUVAIN, priority 2011, published 2013)

Tests used:
isolated pig islets = assay: Islet structure after isolation (histology of isolated islets from STZ-treated pigs); format: in vivo; settings: for proportion of beta-cells in islets: mean±SD, native 91.47±1.19
Procedure: (ii) Young pig islets treated with selected doses of STZ (0, 30, 50 mg/kg) were isolated following a method previously described by Dufrane et al, Xenotransplantation, 2006. Briefly, after being completely dissected, the pancreas were digested by a modified static digestion method: infusion of the pancreas with Liberase DL Research Grade (Roche/Boehringer Mannheim, Brussels, Belgium; 0.43 mg/mL) dissolved in modified UW solution; placement in a sterile 1 L Nalgene jar for digestion by static incubation at 37° C. for 30-50 minutes; filtration in a 500 μm filter; purification in a ficoll grade (densities 1.090, 1.060 and 1.010) (Mediatech Cellgro); washing and suspension of the islets in Ham-F10 (Gibco)+10% New Born Calf Serum (NCS; Merck-Eurolab, Overijse, Belgium).
The cellular composition of human and pig isolated islets was determined by immunohistochemistry. After overnight fixation in formol at room temperature, aliquots of islet preparations were embedded in paraffin and cut in 5 μm sections. Insulin and glucagon staining were performed as described above.
Alpha and β cells proportion and localization (for pig and human) inside islets were compared in isolated islets from 0, 30 and 50 mg/kg STZ pigs in 3 groups of 5 islets (50-99, 100-149 and 150-200 μm).

monkeys = settings: cited from earlier work
hamsters = settings: after STZ treatment; cited from earlier work
pig pancreatic islets = assay: Histomorphometry of pancreatic islets prior to isolation (alpha/beta cells) after STZ; format: in vivo
Procedure: Five doses (0, 30, 50, 75, 100 mg/kg) of filter-sterilized Streptozotocin (STZ) (Sigma, Bornem, Belgium) were tested. STZ was solubilised in citrate buffer (25% v/v Na citrate, 23% v/v citric acid, 52% v/v H2O, pH 4.5) and filtered before injection in the external jugular vein (Dufrane, Transplantation, 2006).
The cellular composition of islets was determined by immunohistochemistry in small samples of human and pig pancreas taken during dissection of the gland. After overnight fixation in formol at room temperature, the small biopsies were embedded in paraffin and cut in 5 μm sections. These sections were thereafter deparaffinized, rehydrated and washed with a solution of Tris-HCl-Buffered solution 0.05 mol/L (TBS, pH 7.4). After inactivation of endogenous peroxidase by a 30-minute incubation in 0.3% H2O2, the sections were incubated with 10% normal goat serum (NGS) in TBS for 30 minutes. The sections were then incubated overnight at 4° C. with glucagon rabbit polyclonal antibody (BD Bioscience, Erembodegem, Belgium) diluted at 1:100. After washes in TBS, the slides were incubated for 30 minutes with anti-rabbit-IgG (1:500) and these antibodies detected by EnVision anti-rabbit system (Dako A/S, Glostrup, Denmark) for 1 hour at room temperature. […] The glucagon staining was followed by the detection of the β-cells by alkaline phosphatase anti-alkaline phosphatase system (APAAP). After washing, aspecific sites were again inhibited by a 30 minutes incubation with 10% normal goat serum (NGS) in TBS. The slides were thereafter incubated overnight with mouse insulin monoclonal antibody (Abcam, Cambridge, UK) diluted at 1:800.
Islets from human and pig pancreas were compared for cellular proportion and geometric distribution of α and β cells (centre/periphery). Following the islets size, 3 groups of 5 islets (50-99, 100-149 and 150-200 μm) were compared in native/modified young pig versus human pancreas.
The number of small β-cell clusters (≦3 insulin-immunoreactive cells) in the total area of the slide was also assessed. The number of these clusters was manually counted through the entire slide. The area of the slide was measured with ImageJ 1.43i software after capture of pictures of slides with a camera Nikon Coolscan 5000, accessory FH-G1) and calibrated with a stage micrometer to correspond to the number of pixels evidenced on the image analyser.

pigs = assay: Intravenous glucose tolerance test (IVGTT) in STZ-injected pigs; format: in vivo, pig
Procedure: […] STZ was solubilised in citrate buffer (25% v/v Na citrate, 23% v/v citric acid, 52% v/v H2O, pH 4.5) and filtered before injection in the external jugular vein (Dufrane, Transplantation, 2006).
Intravenous glucose tolerance tests (IVGTTs) were performed prior and 3 months after STZ injection under general anesthesia (induction by Zoletil (VIRBAC, Carros, France) IM at a dose of 6 mg/kg, maintained by intubation and inhalation of Enflurane (0-1.5%), nitrous oxide and oxygen. A catheter was introduced in the extern jugular vein and a solution of 0.5 g glucose/kg was injected. Blood samples were taken prior and 1, 3, 5, 10, 20, 30, 60, 90 minutes after complete injection of glucose. Glycaemia was measured on these samples (AccuChek, Roche, Brussels, Belgium) and serum was conserved for radioimmuno assay (RIA) quantifications (insulin, c-peptide).

[1] = STZ 30 mg/kg, isolated islets of 50-150 μm
[2] = STZ 50 mg/kg, isolated islets of 50-150 μm
[3] = STZ 50 mg/kg, isolated islets of each size
[4] = STZ 50 mg/kg, by linear regression
[5] = STZ 75 mg/kg, islets of 50-100 μm, prior to isolation

Structure (SMILES): CN(N=O)C(=O)N[C@H]1C(O)O[C@H](CO)[C@@H](O)[C@@H]1O (mixture of isomers) [STZ, Streptozotocin]
- number of alpha cells per islet in comparison to humans (isolated pig islets; [1]): higher number of alpha cells
- proportion of beta-cells in islets (isolated pig islets; [1]): 60.46±3.70
- proportion of alpha cells per islet in comparison to humans (isolated pig islets; STZ 30 mg/kg, isolated islets of 100-150 μm): higher proportion of alpha cells
- number of beta cells per islet in comparison to humans (isolated pig islets; STZ 30 mg/kg, isolated islets of 100-200 μm): higher number of beta cells
- number of beta cells in comparison to humans (isolated pig islets; [2]): higher
- proportion of beta-cells in islets (isolated pig islets; [2]): 60.46±4.55
- alpha cell proportion in comparison to humans (isolated pig islets; [3]): higher alpha cell proportion
- number of alpha cells per islet in comparison to humans (isolated pig islets; [3]): higher number of alpha cells
- number of beta cells in comparison to humans (isolated pig islets; STZ 50 mg/kg, large isolated islets (150-200 μm)): similar
- decrease of β-cells (proportion) (isolated pig islets; STZ 30-50 mg/kg): 30%
- increase of α-cells (isolated pig islets; STZ 30-50 mg/kg): ~300%
- α-cells in remodeled pig islet (isolated pig islets; STZ 30-50 mg/kg): 30%
- β-cells in remodeled pig islet (isolated pig islets; STZ 30-50 mg/kg): 60%
- number of α-cells (monkeys; after STZ treatment, monkeys): increased
- increase of glucagon mass (monkeys; after long-term diabetes (>53 days), treated primates): ~89%
- glucagon content (hamsters): increased
- theoretical increase in the proportion of α cells (pig pancreatic islets; [4]): 30%
- theoretical reduction of the proportion of β cells (pig pancreatic islets; [4]): 30%
- number of alpha cells per islet in comparison to humans (pig pancreatic islets; [5]): higher number of alpha cells
- number of beta cells per islet in comparison to humans (pig pancreatic islets; [5]): lower number of beta cell
- number of beta cells per islet in comparison to humans (pig pancreatic islets; STZ 100 mg/kg, islets of 50-100 μm, prior to isolation): lower number of beta cells
- number of alpha cells per islet in comparison to humans (pig pancreatic islets; STZ 30-50 mg/kg, islets of 50-100 μm and 150-200 μm, prior to isolation): lower number of alpha cells per islet
- alpha cell proportion in comparison to human islets (pig pancreatic islets; STZ 30-50 mg/kg, large islets (150-200 μm), prior to isolation): lower alpha cell proportion
- proportion of alpha cells per islet in comparison to humans (pig pancreatic islets; STZ 75-100 mg/kg, each islet size, prior to isolation): higher proportion of alpha cells
- beta cell regeneration (from duct or exocrine tissue) (pig pancreatic islets; STZ-treated pig pancreas): No sign of beta cell regeneration
- number of α and β cells per islet (pig pancreatic islets; from doses of 30 mg/kg STZ, prior to isolation): increased significantly
- AUC for IVGTT curves (pigs; STZ 150 mg/kg): significant higher AUC
- glucose metabolism (IVGTT curves) (pigs; STZ 30, 50, 75 and 100 mg/kg, single injection, IVGTT 3 months after, vs control animals): not sufficient to induce dysfunction in glucose metabolism
- glucose uptake (IVGTT) (pigs; STZ 30-50 mg/kg): did not affect glucose uptake
